Test system: 817829-284-R-J1-PDC complex spheroids, viability
Assay: Anticancer human tumor 817829-284-R-J1-PDC patient-derived colon adenocarcinoma cell line growth inhibition [GQUAD]
Conditions: for IC50: curve of first compound; for viability, T/C: stronger effect = lower value; active = viability on the fitted dose curve at most 10% of control; inactive = the rest
Method in brief: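 Tumor cells were grown as complex spheroids with HUVEC endothelial cells and mesenchymal stem cells as stroma. G-quadruplex stabilizers were combined with targeted agents over half-log dilutions from near the clinical Cmax, or from 10 microM.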

[1] = second compound 0.0316 µM, first compound 0.0316 µM
[2] = second compound 0.0316 µM, first compound 0.1 µM
[3] = second compound 0.0316 µM, first compound 0.316 µM
[4] = second compound 0.0316 µM, first compound 1 µM
[5] = second compound 0.0316 µM, first compound 3.16 µM
[6] = second compound 0.0316 µM, first compound 10 µM
[7] = second compound 0.1 µM, first compound 0.0316 µM
[8] = second compound 0.1 µM, first compound 0.1 µM
[9] = second compound 0.1 µM, first compound 0.316 µM
[10] = second compound 0.1 µM, first compound 1 µM
[11] = second compound 0.1 µM, first compound 3.16 µM
[12] = second compound 0.1 µM, first compound 10 µM
[13] = second compound 0.316 µM, first compound 0.0316 µM
[14] = second compound 0.316 µM, first compound 0.1 µM
[15] = second compound 0.316 µM, first compound 0.316 µM
[16] = second compound 0.316 µM, first compound 1 µM
[17] = second compound 0.316 µM, first compound 3.16 µM
[18] = second compound 0.316 µM, first compound 10 µM
[19] = second compound 1 µM, first compound 0.0316 µM
[20] = second compound 1 µM, first compound 0.1 µM
[21] = second compound 1 µM, first compound 0.316 µM
[22] = second compound 1 µM, first compound 1 µM
[23] = second compound 1 µM, first compound 3.16 µM
[24] = second compound 1 µM, first compound 10 µM
[25] = second compound 3.16 µM, first compound 0.0316 µM
[26] = second compound 3.16 µM, first compound 0.1 µM
[27] = second compound 3.16 µM, first compound 0.316 µM
[28] = second compound 3.16 µM, first compound 1 µM
[29] = second compound 3.16 µM, first compound 3.16 µM
[30] = second compound 3.16 µM, first compound 10 µM
[31] = second compound 10 µM, first compound 0.0316 µM
[32] = second compound 10 µM, first compound 0.1 µM
[33] = second compound 10 µM, first compound 0.316 µM
[34] = second compound 10 µM, first compound 1 µM
[35] = second compound 10 µM, first compound 3.16 µM
[36] = second compound 10 µM, first compound 10 µM
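Note: spheroids exposed to agents for 7 days before readout.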
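Throughout, for viability, T/C: percent viability relative to DMSO vehicle control taken as 100%.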

C#Cc1c(F)ccc2cc(O)cc(-c3ncc4c(N5CC6CCC(C5)N6)nc(OCC56CCCN5CC(F)C6)nc4c3F)c12 (stereo unspecified) + Cc1cnc(CNC(=O)c2c(=O)c3ccc(N4CCCN(C)CC4)nc3n3c2sc2ccccc23)cn1
> 10000 nM: IC50 (second compound 0.0316 µM)
inactive: viability, T/C [1] 82.9% | viability, T/C [2] 72.5% | viability, T/C [3] 84.7% | viability, T/C [4] 61% | viability, T/C [5] 91.2% | viability, T/C [6] 89.8% | viability, T/C [7] 30.7% | viability, T/C [8] 35.5% | viability, T/C [9] 32.8% | viability, T/C [10] 36.2% | viability, T/C [11] 33.9% | viability, T/C [12] 35.9% | viability, T/C [13] 22.9% | viability, T/C [14] 28.6% | viability, T/C [15] 24.8% | viability, T/C [16] 24.1% | viability, T/C [17] 29.4% | viability, T/C [18] 27% | viability, T/C [19] 17.9% | viability, T/C [20] 23.4% | viability, T/C [21] 20.6% | viability, T/C [22] 21.8% | viability, T/C [23] 23% | viability, T/C [24] 19.8% | viability, T/C [25] 17% | viability, T/C [26] 20.1% | viability, T/C [27] 18.8% | viability, T/C [28] 17.3% | viability, T/C [29] 22.7% | viability, T/C [30] 20.5%
< 31.6 nM: IC50 (second compound 0.1 µM) | IC50 (second compound 0.316 µM) | IC50 (second compound 1 µM) | IC50 (second compound 3.16 µM) | IC50 (second compound 10 µM)
active: viability, T/C [31] 0.13% | viability, T/C [32] 0.18% | viability, T/C [33] 0.19% | viability, T/C [34] 0.15% | viability, T/C [35] 0.18% | viability, T/C [36] 0.16%

CCCS(=O)(=O)Nc1ccc(F)c(C(=O)c2c[nH]c3ncc(-c4ccc(Cl)cc4)cc23)c1F + Cc1cnc(CNC(=O)c2c(=O)c3ccc(N4CCCN(C)CC4)nc3n3c2sc2ccccc23)cn1
44.8 nM: IC50 (second compound 0.0316 µM)
inactive: viability, T/C [1] 57.4% | viability, T/C [2] 33.9% | viability, T/C [3] 34.4% | viability, T/C [4] 28.3% | viability, T/C [5] 30.9% | viability, T/C [6] 11.8% | viability, T/C [7] 20.7% | viability, T/C [8] 21.9% | viability, T/C [9] 15.6% | viability, T/C [10] 14.8% | viability, T/C [11] 12.5% | viability, T/C [12] 10.2% | viability, T/C [13] 19.2% | viability, T/C [14] 20% | viability, T/C [15] 17.1% | viability, T/C [16] 16.7% | viability, T/C [17] 15.7% | viability, T/C [18] 10.7% | viability, T/C [19] 16.7% | viability, T/C [20] 19.7% | viability, T/C [21] 18.6% | viability, T/C [22] 14.5% | viability, T/C [23] 14.5% | viability, T/C [24] 6.86% | viability, T/C [25] 18% | viability, T/C [26] 17.4% | viability, T/C [27] 15.1% | viability, T/C [28] 12.9%
active: viability, T/C [29] 12.2% | viability, T/C [30] 2.83% | viability, T/C [31] 0.09% | viability, T/C [32] 0.13% | viability, T/C [33] 0.17% | viability, T/C [34] 0.16% | viability, T/C [35] 0.17% | viability, T/C [36] 0.17%
< 31.6 nM: IC50 (second compound 0.1 µM) | IC50 (second compound 0.316 µM) | IC50 (second compound 1 µM) | IC50 (second compound 3.16 µM) | IC50 (second compound 10 µM)

CC[C@@]1(O)C(=O)OCc2c1cc1n(c2=O)Cc2cc3c(CN(C)C)c(O)ccc3nc2-1 + Cc1cnc(CNC(=O)c2c(=O)c3ccc(N4CCCN(C)CC4)nc3n3c2sc2ccccc23)cn1
active: viability, T/C (second compound 10 µM, first compound 0.000999 µM) 0.08% | viability, T/C (second compound 10 µM, first compound 0.00316 µM) 0.14% | viability, T/C (second compound 10 µM, first compound 0.00999 µM) 0.19% | viability, T/C [31] 0.16% | viability, T/C (second compound 10 µM, first compound 0.0999 µM) 0.22% | viability, T/C [33] 0.17%
9.66 nM: IC50 (second compound 0.0316 µM)
< 0.999 nM: IC50 (second compound 0.1 µM) | IC50 (second compound 0.316 µM) | IC50 (second compound 1 µM) | IC50 (second compound 3.16 µM) | IC50 (second compound 10 µM)
inactive: viability, T/C (second compound 0.0316 µM, first compound 0.000999 µM) 78.1% | viability, T/C (second compound 0.0316 µM, first compound 0.00316 µM) 61% | viability, T/C (second compound 0.0316 µM, first compound 0.00999 µM) 54.5% | viability, T/C [1] 33.9% | viability, T/C (second compound 0.0316 µM, first compound 0.0999 µM) 33.8% | viability, T/C [3] 28.5% | viability, T/C (second compound 0.1 µM, first compound 0.000999 µM) 29.2% | viability, T/C (second compound 0.1 µM, first compound 0.00316 µM) 37.9% | viability, T/C (second compound 0.1 µM, first compound 0.00999 µM) 32.2% | viability, T/C [7] 31% | viability, T/C (second compound 0.1 µM, first compound 0.0999 µM) 28% | viability, T/C [9] 23.1% | viability, T/C (second compound 0.316 µM, first compound 0.000999 µM) 24.8% | viability, T/C (second compound 0.316 µM, first compound 0.00316 µM) 26.8% | viability, T/C (second compound 0.316 µM, first compound 0.00999 µM) 26.9% | viability, T/C [13] 25% | viability, T/C (second compound 0.316 µM, first compound 0.0999 µM) 26% | viability, T/C [15] 20.5% | viability, T/C (second compound 1 µM, first compound 0.000999 µM) 20.3% | viability, T/C (second compound 1 µM, first compound 0.00316 µM) 24.9% | viability, T/C (second compound 1 µM, first compound 0.00999 µM) 24.4% | viability, T/C [19] 22.9% | viability, T/C (second compound 1 µM, first compound 0.0999 µM) 23.8% | viability, T/C [21] 22.6% | viability, T/C (second compound 3.16 µM, first compound 0.000999 µM) 22.5% | viability, T/C (second compound 3.16 µM, first compound 0.00316 µM) 21.7% | viability, T/C (second compound 3.16 µM, first compound 0.00999 µM) 20.3% | viability, T/C [25] 19.2% | viability, T/C (second compound 3.16 µM, first compound 0.0999 µM) 20% | viability, T/C [27] 16.1%
